In PMC2556223 (Journal of biomolecular screening, 2008):
Like-named read-outs stand apart in the source and are kept apart here.

How the values were obtained:
MV-Ibd = experiment: Dose-response CPE assay against AS-48-resistant MV strain; details: for EC50 (MV-Ibd): strain naturally resistant to MV fusion inhibitor AS-48, highest concentration assessed 37.5 μM
MV-AII-5 = experiment: Dose-response CPE assay against AS-136A-adapted MV variant; details: read-out: EC50 (MV-AII-5); MV-Alaska variant adapted to grow in presence of RdRp inhibitor AS-136A; highest concentration assessed 37.5 μM
cells = experiment: Quantitative cytotoxicity assay; assay type: cell-based; details: for CC50: 24 h, absence of virus, highest concentration assessed 150 μM, averages of two experiments; for SI (CC50/EC50): specificity index, CC50 / EC50 against MV-Alaska
CDV-752 = experiment: Dose-response CPE assay, Vero-dogSLAM cells; assay type: cell-based, canine distemper virus; details: for EC50: read-out: EC50 (CDV-752)
HPIV3 = experiment: Dose-response CPE assay, Vero cells; assay type: cell-based, human parainfluenzavirus type 3; details: for EC50: read-out: EC50 (HPIV3)
MV-Alaska = experiment: Dose-response curves based on suppression of viral CPE; assay type: cell-based, measles virus; details: for Activity of re-synthesized compound versus original library substance: biotesting of chemically re-synthesized compound, data not shown
[1] = Quantitative cytotoxicity assay; assay type: cell-based
[2] = biological target: MV H and F envelope glycoproteins (Measles virus, UniProt P08362+P69353); experiment: cell-based
Sequence of MV H and F envelope glycoproteins (P08362 whole entry): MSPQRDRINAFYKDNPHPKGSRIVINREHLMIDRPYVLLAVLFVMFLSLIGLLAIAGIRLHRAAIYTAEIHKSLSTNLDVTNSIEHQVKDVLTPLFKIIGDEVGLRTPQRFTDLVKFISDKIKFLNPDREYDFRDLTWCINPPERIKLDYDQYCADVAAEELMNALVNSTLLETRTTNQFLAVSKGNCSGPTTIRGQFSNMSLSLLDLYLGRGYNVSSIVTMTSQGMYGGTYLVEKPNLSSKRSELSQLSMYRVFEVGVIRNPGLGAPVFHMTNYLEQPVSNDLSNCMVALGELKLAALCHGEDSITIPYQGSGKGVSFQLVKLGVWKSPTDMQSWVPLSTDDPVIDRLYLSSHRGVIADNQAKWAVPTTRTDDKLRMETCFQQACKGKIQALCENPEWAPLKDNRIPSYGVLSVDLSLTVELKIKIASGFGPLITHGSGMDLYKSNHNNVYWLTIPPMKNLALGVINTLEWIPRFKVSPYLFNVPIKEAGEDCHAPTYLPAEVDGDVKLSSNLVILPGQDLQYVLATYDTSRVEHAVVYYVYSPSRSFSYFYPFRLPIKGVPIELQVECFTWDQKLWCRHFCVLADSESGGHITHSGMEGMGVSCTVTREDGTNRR
Sequence of MV H and F envelope glycoproteins (P69353 113-550): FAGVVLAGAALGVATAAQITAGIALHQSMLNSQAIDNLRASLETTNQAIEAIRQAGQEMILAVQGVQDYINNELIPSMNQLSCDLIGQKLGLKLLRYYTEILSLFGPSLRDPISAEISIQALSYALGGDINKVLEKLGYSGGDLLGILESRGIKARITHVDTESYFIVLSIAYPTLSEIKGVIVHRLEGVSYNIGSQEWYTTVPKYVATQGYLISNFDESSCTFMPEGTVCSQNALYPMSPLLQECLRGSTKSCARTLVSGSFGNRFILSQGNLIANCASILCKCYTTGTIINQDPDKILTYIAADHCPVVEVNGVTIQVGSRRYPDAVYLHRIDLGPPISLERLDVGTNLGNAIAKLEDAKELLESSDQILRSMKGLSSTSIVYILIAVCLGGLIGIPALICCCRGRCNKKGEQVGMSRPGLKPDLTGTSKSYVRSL
Sequence of MV H and F envelope glycoproteins (P69353 24-112): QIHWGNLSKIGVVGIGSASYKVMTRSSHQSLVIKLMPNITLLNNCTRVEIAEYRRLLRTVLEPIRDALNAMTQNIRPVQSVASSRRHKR

[3] = Vero-dogSLAM cells, highest concentration assessed 37.5 μM
[4] = Vero cells, highest concentration assessed 37.5 μM

SMILES | EC50 (MV-Ibd) (MV-Ibd) | EC50 (MV-AII-5) [µM] | CC50 (cells) [µM] | SI (CC50/EC50) (cells) | EC50 (CDV-752; [3]) [µM] | EC50 (HPIV3) (HPIV3; [4]) | EC50 (CDV-752) (CDV-752; [3]) | EC50 (HPIV3; [4]) [µM] | further results
CNC(=O)c1ccc(OCc2ccccc2)c(OC)c1 [compound 4265637] | no activity detected | 4.7 ± 0.3 | > 150 | >50 | 6.7 ± 0.1 | no activity detected |  |  | 
CSc1ccccc1NC(=O)Cn1c(-c2cscn2)nc2ccccc21 [compound 4261934] |  | 3.9 ± 0.1 | > 150 | >63 |  | no activity detected | no activity detected |  | 
Cc1ccc(N(Cc2ccc(C(=O)NC3CCCCC3)cc2)S(C)(=O)=O)cc1C [compound 14722514] |  | 3.6 ± 1.6 | ~150 | 214 |  | no activity detected | no activity detected |  | Activity of re-synthesized compound versus original library substance (MV-Alaska): essentially identical to the original substances stored in the library
CC(=O)Nc1ccc(-c2csc(NC(=O)CCCc3cccs3)n2)cc1 [compound 22408576] |  | 2 ± 0.1 | > 150 | >65 |  | no activity detected | no activity detected |  | 
CC(=O)Nc1ccc(Nc2cc(C)nc3c(-c4ccccc4)cnn23)cc1 [compound 17505573] | no activity detected | 1.6 ± 0.1 | 54 | 14 |  | no activity detected | no activity detected |  | 
CC(=O)/C(C#N)=C1\NC(=O)C(Cc2ccc(C)c(C)c2)S1 (stereo not drawn) [compound 14741996] |  | 7.7 ± 0.1 | > 150 | >47 | 4.2 ± 0.1 |  |  | 3.9 ± 0.1 | 
CCOC(=O)Cn1c(-c2nonc2NC(=O)c2ccccc2F)nc2ccccc21 [compound 7973070] |  | 2 ± 0.2 | ~150 | 375 | 1 ± 0.1 |  |  | 1.9 ± 0.1 | 
C#CCn1c(S(=O)(=O)Cc2ccc(F)cc2)nc(-c2ccccc2)c1-c1ccccc1 [compound 17409378] |  | 1.4 ± 0.3 | 26 | 37 |  |  |  | 1.7 ± 0.2 | 
CC(=O)Nc1ccc(-c2csc(NC(=O)C3CCN(S(=O)(=O)c4cccs4)CC3)n2)cc1 [compound 22410899] |  | 3.8 ± 0.3 | > 150 | >39 |  | no activity detected | no activity detected |  | 
CCN(CC)C(=O)N1c2ccccc2C=Cc2ccccc21 [compound 14740150] |  |  | > 150 | >34 | 1.9 ± 0.1 |  |  | 3 ± 0.1 | 
COc1cc(/C=C/C(=O)N2CCOCC2)ccc1OCc1ccccc1 [compound 22415419] | no activity detected | 2.2 ± 0.3 | > 150 | >33 | 5 ± 0.2 | no activity detected |  |  | 
O=C(/C=C/c1cccs1)Nc1cccc(NC(=O)/C=C/c2cccs2)n1 [compound 17433375] |  | 3.2 ± 0.1 | 70 | 19 |  | no activity detected | no activity detected |  | 
COc1ccc(-n2c(SC(C)C(=O)Nc3ncc(Cl)cc3Cl)nc3ccccc32)cc1 (stereo not drawn) [compound 22407448] |  | 0.1 | > 150 |  |  |  |  | 0.2 ± 0.1 | Activity of re-synthesized compound versus original library substance (MV-Alaska): essentially identical to the original substances stored in the library
COc1ccc([N+](=O)[O-])cc1NC(=O)CCc1ccccc1 [compound 17416393] | no activity detected | 2.9 ± 0.5 | > 150 | >100 | 12.9 ± 0.7 | no activity detected |  |  | 
Cc1cccc(-n2c(SCC(=O)Nc3ncc(Cl)cc3Cl)nc3ccccc32)c1 [compound 22404943] |  | 0.5 ± 0.1 | > 150 | >214 | 0.4 ± 0.1 |  |  | 0.6 ± 0.1 | 
Cn1c(C(=O)NCc2ccccc2)cc2oc3ccccc3c21 [compound 14735307] |  | 5.4 ± 1.6 | > 150 |  |  | no activity detected | no activity detected |  | 

SMILES | EC50 (MV-Ibd) (MV-Ibd) | EC50 (MV-AII-5) [µM] | CC50 (cells) [µM] | SI (CC50/EC50) (cells) | EC50 (CDV-752; [3]) [µM] | EC50 (HPIV3) (HPIV3; [4]) | EC50 (CDV-752) (CDV-752; [3]) | EC50 (HPIV3; [4]) [µM] | further results
Cc1ccc2[nH]c(=O)c(N3CCOCC3)c(-c3ccccc3)c2c1 [compound 4259333] |  | 4.3 ± 0.3 | 118 | 36 |  | no activity detected | no activity detected |  | 
CSc1nnc2c3ccccc3n(CCc3ccccc3)c2n1 [compound 7976354] |  | 1 ± 0.1 | > 150 | >33 | 0.9 ± 0.1 |  |  | 3.5 ± 0.1 | 
COc1cccc(CNC(=O)c2cc3oc4ccccc4c3n2C)c1OC [compound 4242806] |  | 2.1 ± 0.1 | 147 | 105 | 2.1 ± 0.1 |  |  | 2 ± 0.1 | 
O=C(Cc1cccs1)Nc1cc(SCCO)cc([N+](=O)[O-])c1 [compound 22402685] | no activity detected | 1.6 ± 0.2 | > 150 | >79 | 2.1 ± 0.3 | no activity detected |  |  | 
O=C(Cc1cccs1)Nc1nc2c(s1)CCCC2 [compound 4256670] |  |  |  |  |  |  |  |  | EC50 (MV-Ibd; Measles morbillivirus, read-out: EC50 (MV-Ibd)): 26.6 ± 9.3 µM; CC50 at 24 h [1]: ~150 µM; selectivity ratio [1]: 68; EC50 (CDV-752; canine distemper virus): 3.9 ± 0.2 µM; EC50 [2]: 22 µM; Suppression of reporter expression ([2]; at 5 μM): did not suppress reporter expression at all; EC50 (HPIV3; Human respirovirus 3, Vero, in Homo sapiens): 5.8 ± 0.6 µM; EC50 (MV-Alaska; Measles morbillivirus, 96 h, read-out: EC50 (MV-Alaska)): 2.2 ± 0.3 µM
CCN=c1scc(-c2ccccc2)n1/N=C/c1ccccn1 [compound 22406746] |  |  | ~150 | 37 | 2.3 ± 0.2 |  |  | 2 ± 0.1 | 
Cc1cccc2c(=O)cc(C)n(Cc3ccccc3)c12 [compound 22415156] |  | 2.4 ± 0.2 | > 150 | >42 | 11 ± 0.1 | no activity detected |  |  | 
COc1cc(/C=C/C(=O)NC(C)C)ccc1OCc1ccccc1 [compound 22415706] | no activity detected | 4.1 |  |  | 12.9 | no activity detected |  |  | 
CS(=O)(=O)N1CCc2cc(-c3csc(NC(=O)Cc4cccs4)n3)ccc21 [compound 846635] | no activity detected | 3.7 ± 0.1 | ~150 | 56 |  | no activity detected | no activity detected |  | 
O=C(CSc1nc2ccccc2n1-c1ccccc1)Nc1ncc(Cl)cc1Cl [compound 22407466] |  |  | > 150 | >71 | 0.9 ± 0.1 |  |  | 1 ± 0.1 | 
C=CCN=c1scc(-c2ccccc2)n1/N=C/c1ccccn1 [compound 22406106] |  |  | 139 | 116 |  |  |  |  | 
CC1Cc2cc(-c3csc(NC(=O)Cc4cccs4)n3)ccc2N1S(C)(=O)=O (stereo not drawn) [compound 852230] | no activity detected | 4.5 ± 0.2 | ~150 | 46 |  | no activity detected | no activity detected |  | 
CSc1cccc(NC(=O)Cn2cccc2)c1 [compound 4245209] | no activity detected | 14.3 ± 0.8 |  |  | 31.1 | no activity detected |  |  | 
CS(=O)(=O)N1CCc2cc(-c3csc(NC(=O)Cc4ccccc4)n3)ccc21 [compound 14723513] | no activity detected | 3.6 ± 0.2 | > 150 | >41 | 26.8 ± 8.7 | no activity detected |  |  | 
C=CCn1c(SCC(=O)N2CC(=O)Nc3ccccc32)nc2scc(-c3ccccc3)c2c1=O [compound 14743644] |  | 4.6 ± 0.1 | ~150 | 56 |  | no activity detected | no activity detected |  | 
